Experiment [1] concerns Escherichia coli. Description: Growth inhibition of Gram-negative bacteria by P18 (optical density at 620 nm). The experiment is classed as cell-based. Particulars: for optical density at 620 nm: E. coli suspension, 25 μM P18 solution, mean of 8 mixtures. How it is done: The growth inhibition by P18 was investigated on Gram-positive and Gram-negative bacteria. Shin et al. 1999 (loc.cit.) had already detected an inhibition on the model organisms Escherichia coli and Bacillus subtilis within a period up to 18 hours.
The growth medium used for this was LB medium as complex medium for the organisms Escherichia coli, Bacillus subtilis and Brevibacterium epidermidis. The medium comprised 10 g of trypton, 5 g of yeast extract and 10 g of NaCl per liter.
The growth test was carried out as follows: A shake flask with medium was inoculated with Escherichia coli, Bacillus subtilis or Brevibacterium epidermidis and incubated with shaking overnight at 30° C. and 200 rpm. A 96-well microtiter plate was filled with in each case 100 μl LB medium and inoculated with E.-coli, B.-subtilis or B. epidermidis suspensions of the overnight culture. The bacteria suspension was adjusted at the start of the experiment to an optical density, measured at 620 nm, of about 0.02. The concentrates of the P18 inhibitor solutions were 1 mM in water.
(§1) The growth of the following mixtures was compared by measuring the optical density:
bacteria suspension without the addition of an inhibitor;
bacteria suspension and addition of an aqueous P18 solution with a final concentration of 25 μM. The aqueous P18 solution had been freshly prepared.
The growth was observed over a period of 40 hours by measuring the optical density. […] The growth of Gram-positive bacteria was inhibited initially.

Experiment [2] deals with Malassezia furfur. Description: Inhibition of Malassezia furfur growth test (optical density and colony-forming units), Examples 1 and 2. The experiment is classed as cell-based. The conditions noted are these: for colony-forming units: 10 μl plated out. As to the method:
Growth medium: M472-Pitysporum medium according to DSMZ
The components were sterilized at 121° C., 1 bar superatmospheric pressure for 20 minutes.
2 g/l of olive oil were sterilized by filtration and, after autoclaving, added to the other components.
Since it was a two-phase medium, the complete medium was treated with sonication in order to enlarge the phase boundary.
For agar plates, if appropriate, […] of agar agar were added to the medium.
The growth test was carried out as follows: A shake flask with M472-Pitysporum medium was inoculated with M. furfur and incubated with shaking overnight at 30° C. and 200 rpm.
A 96-well microtiter plate was filled with in each case 100 μl of M472-Pitysporum medium and inoculated with M. furfur suspension of the overnight culture. The M. furfur suspension was adjusted at the start of the experiment to an optical density, measured at 620 nm, of 0.02. The concentrates of the inhibitor solutions were 1 mM in water or DMSO.
The growth of the following batches was compared by measuring the optical density:
M. furfur suspension without the addition of an inhibitor.
This was to exclude that an inhibition is attributable merely to the effect of the DMSO, or a false positive result being observed.
M. furfur suspension and addition of an aqueous P18 solution with a final concentration of 25 μM.
M. furfur suspension and addition of a P18 solution in DMSO with a final concentration of 25 μM.
M. furfur suspension and addition of a zinc pyrithione (ZPT, Sigma-Aldrich) solution in DMSO with a final concentration of 25 μM.
M. furfur suspension and addition of a Ketoconazole (Sigma-Aldrich) solution in DMSO with a final concentration of 25 μM.
The microtiter plate was incubated with shaking at 30° C.
[…] The colony-forming units (CFU) were then determined by plating out 10 μl from each of the suspensions and, after incubation for 6 days, counting the colonies. The CFU was determined in order to exclude an influence of the two-phase medium and also the growth form of M. furfur on the optical density. […] The experiments were carried out at least in triple determinations and independently repeated.
For this, the procedure was as described in Example 1. 1 mM stock solutions of the fusion peptide P18, magainin 2 and cecropin A in DMSO were prepared. The final concentrations of the peptides in the growth experiments were 25 μM. The same amount of DMSO was likewise added to the suspension without inhibitor in order to exclude a growth-inhibiting effect of the DMSO.
as §1
This was to exclude that an inhibition is attributable merely to the effect of the DMSO.
M. furfur suspension and addition of a magainin 2 solution in DMSO with a final concentration of 25 μM.
M. furfur suspension and addition of a cecropin A solution in DMSO with a final concentration of 25 μM.
M. furfur suspension and addition of a peptide P18 (SEQ ID NO3) solution in DMSO with a final concentration of 25 μM.

The mark [3] stands for this setting: aqueous solution, 25 μM, incubation time 16 h.
Setting [4] is: aqueous solution, 25 μM, incubation time 24 h.
Where [5] appears, read: aqueous solution, 25 μM, incubation time 40 h.
Setting [6] is: solution in DMSO, 25 μM, incubation time 16 h.
Where [7] appears, read: solution in DMSO, 25 μM, incubation time 24 h.
Setting [8] is: solution in DMSO, 25 μM, incubation time 40 h.

Ends that are not written are not given here.

On to “KWKLFKKIPKFLHLAKKF-NH2 [P18, KWKLFKKIPKFLHLAKKF-NH2]”, for which the “growth of E. coli (in words)” value in experiment [1] (25 μM, period of 40 hours) was “effectively inhibited”. Moreover, the “optical density at 620 nm” value was 0.09 in experiment [1] (incubation time 16 h), 0.06 in experiment [1] (incubation time 24 h) and 0.07 in experiment [1] (incubation time 40 h). Moreover, the “inhibition of the growth of M. furfur compared to magainin 2 or cecropin A” value in experiment [2] (25 μM in DMSO) is reported as “more effectively than magainin 2 or cecropin A alone”. The “growth of M. furfur (in words)” value in experiment [2] (25 μM, observed time period up to 40 hours) is recorded as “effectively inhibited”. Moreover, the optical density turned out to be 0 in experiment [2] (aqueous solution, 25 μM, incubation time 0 h); 0 in experiment [2] (setting [3]); 0 in experiment [2] (setting [4]); 0 in experiment [2] (setting [5]); 0 in experiment [2] (solution in DMSO, 25 μM, incubation time 0 h); 0 in experiment [2] (setting [6]). Besides, the optical density in experiment [2] (setting [7]) and in experiment [2] (setting [8]) was 0 throughout. The colony-forming units was determined as 62 in experiment [2] (setting [3]); 41 in experiment [2] (setting [4]); 120 in experiment [2] (setting [5]); 8 in experiment [2] (setting [6]); 0 in experiment [2] (setting [7]); 0 in experiment [2] (setting [8]). The CFU in experiment [2] (solution in DMSO, 25 μM, incubation time 64 h) turned out to be 0; in experiment [2] (solution in DMSO, 25 μM, incubation time 72 h), 23.

Source of the values: US8765688B2, “Anti-dandruff compositions containing peptides” (priority 2007, dated 2014).
